Test results: patent publication US20230081426A1, “COMPOUNDS AND METHODS FOR KRAS MODULATION AND INDICATIONS THEREFOR” (Plexxikon Inc., priority 2020, published 2023)

Columns and labels:
[1] = target: T1, G12D-mutant human KRAS (amino acid residues 1-188) (Homo sapiens, UniProt P01116, G12D); test: KRAS Binding Disruption Assay (AlphaScreen; biotinylated KRpep-2d analogue or RAF1-RBD), G12D; details: KRAS G12D; geometric mean; read-out: KRAS GMean IC50 (uM) MUTATION: G12D
T1 construct: G12D or G12C-mutant human KRAS (amino acid residues 1-188) with FLAG tag; made in house; host or cells: E. coli
Summary of the method: (§1)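 Displacement format with mutant KRAS, biotinylated KRpep-2d analogue or RAF1-RBD (5-20 nM each) at pH 7.5 with 5 mM MgCl2.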

[2] = target: T2, G12V-mutant human KRAS (amino acid residues 1-188) (Homo sapiens, UniProt P01116, G12V); test: KRAS Binding Competition Assay (AlphaScreen; biotinylated KRpep-2d analogue), G12V; details: geometric mean, read-out: KRAS GMean IC50 (uM) MUTATION: G12V
T2 construct: G12V-mutant human KRAS (amino acid residues 1-188) with FLAG tag was purified from E. coli; made in house; host or cells: E. coli

[3] = target: T3, G12C-mutant human KRAS (amino acid residues 1-188) (Homo sapiens, UniProt P01116, G12C); test: KRAS Binding Disruption Assay (AlphaScreen; biotinylated KRpep-2d analogue or RAF1-RBD), G12C; details: geometric mean, read-out: KRAS GMean IC50 (uM) MUTATION: G12C
T3 construct: G12D or G12C-mutant human KRAS (amino acid residues 1-188) with FLAG tag; made in house; host or cells: E. coli
Summary of the method: as §1

Measured: IC50

O=C1CC(CC(=O)N2[C@@H]3CC[C@H]2CN(c2nc(OCC45CCCN4CCC5)nc4c(F)c(-c5cc(O)cc6ccccc56)ccc24)C3)C(=O)N1 (stereo partly drawn) [P-0356, 3-(2-((1R,5S)-3-(8-fluoro-7-(3-hydroxynaphthalen-1-yl)-2-((tetrahydro-1H-pyrrolizin-7a(5H)-yl)methoxy)quinazolin-4-yl)-3,8-diazabicyclo[3.2.1]octan-8-yl)-2-oxoethyl)pyrrolidine-2,5-dione]
0.0001 to 10 µM: all assays above

CN1CCC[C@H]1COc1nc(N2CC3COCC(C2)N3)c2cc(Cl)c(-c3cc(O)cc4cccc(Cl)c34)c(F)c2n1 [P-0365, 4-(4-(3-oxa-7,9-diazabicyclo[3.3.1]nonan-7-yl)-6-chloro-8-fluoro-2-(((S)-1-methylpyrrolidin-2-yl)methoxy)quinazolin-7-yl)-5-chloronaphthalen-2-ol]
0.0001 to 10 µM: all assays above

O=C1NC(=O)C(CC(=O)N2[C@@H]3CC[C@H]2CN(c2nc(OCC45CCCN4CCC5)nc4c(F)c(-c5cc(O)cc6ccccc56)ccc24)C3)N1 (stereo partly drawn) [P-0366]
0.0001 to 10 µM: all assays above

O=C1NC(=O)C(CCC(=O)N2[C@@H]3CC[C@H]2CN(c2nc(OCC45CCCN4CCC5)nc4c(F)c(-c5cc(O)cc6ccccc56)ccc24)C3)N1 (stereo partly drawn) [P-0375, 5-(3-((1R,5S)-3-(8-fluoro-7-(3-hydroxynaphthalen-1-yl)-2-((tetrahydro-1H-pyrrolizin-7a(5H)-yl)methoxy)quinazolin-4-yl)-3,8-diazabicyclo[3.2.1]octan-8-yl)-3-oxopropyl)imidazolidine-2,4-dione]
0.0001 to 10 µM: all assays above

NC1=NC(=O)C(CC(=O)N2[C@@H]3CC[C@H]2CN(c2nc(OCC45CCCN4CCC5)nc4c(F)c(-c5cc(O)cc6ccccc56)ccc24)C3)S1 (stereo partly drawn) [P-0384, 2-amino-5-(2-((1R,5S)-3-(8-fluoro-7-(3-hydroxynaphthalen-1-yl)-2-((tetrahydro-1H-pyrrolizin-7a(5H)-yl)methoxy)quinazolin-4-yl)-3,8-diazabicyclo[3.2.1]octan-8-yl)-2-oxoethyl)thiazol-4 (5H)-one]
0.0001 to 10 µM: all assays above

O=C(Cn1ccnc1)N1[C@@H]2CC[C@H]1CN(c1nc(OCC34CCCN3CCC4)nc3c(F)c(-c4cc(O)cc5ccccc45)ccc13)C2 [P-0387, 1-((1R,5S)-3-(8-fluoro-7-(3-hydroxynaphthalen-1-yl)-2-((tetrahydro-1H-pyrrolizin-7a(5H)-yl)methoxy)quinazolin-4-yl)-3,8-diazabicyclo[3.2.1]octan-8-yl)-2-(1H-imidazol-1-yl)ethan-1-one]
0.0001 to 10 µM: all assays above

CN1CCC[C@H]1COc1nc(N2C[C@H]3CC[C@@H](C2)N3C(=O)C(N)=O)c2ccc(-c3cc(O)cc4ccccc34)c(F)c2n1 [P-0397, 2-((1R,5S)-3-(8-fluoro-7-(3-hydroxynaphthalen-1-yl)-2-(((S)-1-methylpyrrolidin-2-yl)methoxy)quinazolin-4-yl)-3,8-diazabicyclo[3.2.1]octan-8-yl)-2-oxoacetamide]
0.0001 to 10 µM: all assays above

NS(=O)(=O)NCC(=O)N1[C@@H]2CC[C@H]1CN(c1nc(OCC34CCCN3CCC4)nc3c(F)c(-c4cc(O)cc5ccccc45)ccc13)C2 [P-0408, N-(2-((1R,5S)-3-(8-fluoro-7-(3-hydroxynaphthalen-1-yl)-2-((tetrahydro-1H-pyrrolizin-7a(5H)-yl)methoxy)quinazolin-4-yl)-3,8-diazabicyclo[3.2.1]octan-8-yl)-2-oxoethyl)aminosulfonamide]
0.0001 to 10 µM: all assays above

N#CC1(CC(=O)N2[C@@H]3CC[C@H]2CN(c2nc(OCC45CCCN4CCC5)nc4c(F)c(-c5cc(O)cc6ccccc56)ccc24)C3)CC1 [P-0409, 1-(2-((1R,5S)-3-(8-fluoro-7-(3-hydroxynaphthalen-1-yl)-2-((tetrahydro-1H-pyrrolizin-7a(5H)-yl)methoxy)quinazolin-4-yl)-3,8-diazabicyclo[3.2.1]octan-8-yl)-2-oxoethyl)cyclopropane-1-carbonitrile]
0.0001 to 10 µM: all assays above

O=C1N=C(S)SC1CC(=O)N1[C@@H]2CC[C@H]1CN(c1nc(OCC34CCCN3CCC4)nc3c(F)c(-c4cc(O)cc5ccccc45)ccc13)C2 (stereo partly drawn) [P-0411, 5-(2-((1R,5S)-3-(8-fluoro-7-(3-hydroxynaphthalen-1-yl)-2-((tetrahydro-1H-pyrrolizin-7a(5H)-yl)methoxy)quinazolin-4-yl)-3,8-diazabicyclo[3.2.1]octan-8-yl)-2-oxoethyl)-2-mercaptothiazol-4(5H)-one]
0.0001 to 10 µM: all assays above

CN1C(=O)SC(CC(=O)N2[C@@H]3CC[C@H]2CN(c2nc(OCC45CCCN4CCC5)nc4c(F)c(-c5cc(O)cc6ccccc56)ccc24)C3)C1=O (stereo partly drawn) [P-0412, 5-(2-((1R,5S)-3-(8-fluoro-7-(3-hydroxynaphthalen-1-yl)-2-((tetrahydro-1H-pyrrolizin-7a(5H)-yl)methoxy)quinazolin-4-yl)-3,8-diazabicyclo[3.2.1]octan-8-yl)-2-oxoethyl)-3-methylthiazolidine-2,4-dione]
0.0001 to 10 µM: all assays above

O=C1N[C@@H](CC(=O)N2[C@@H]3CC[C@H]2CN(c2nc(OCC45CCCN4CCC5)nc4c(F)c(-c5cc(O)cc6ccccc56)ccc24)C3)CO1 [P-0414, (S)-4-(2-((1R,5S)-3-(8-fluoro-7-(3-hydroxynaphthalen-1-yl)-2-((tetrahydro-1H-pyrrolizin-7a(5H)-yl)methoxy)quinazolin-4-yl)-3,8-diazabicyclo[3.2.1]octan-8-yl)-2-oxoethyl)oxazolidin-2-one]
0.0001 to 10 µM: all assays above

O=C1NC(=O)[C@H](CC(=O)N2[C@@H]3CC[C@H]2CN(c2nc(OCC45CCCN4CCC5)nc4c(F)c(-c5cc(O)cc6ccccc56)ccc24)C3)N1 [P-0415, (S)-5-(2-((1R,5S)-3-(8-fluoro-7-(3-hydroxynaphthalen-1-yl)-2-((tetrahydro-1H-pyrrolizin-7a(5H)-yl)methoxy)quinazolin-4-yl)-3,8-diazabicyclo[3.2.1]octan-8-yl)-2-oxoethyl)imidazolidine-2,4-dione]
0.0001 to 10 µM: all assays above

O=C1NC(=O)/C(=C/C(=O)N2[C@@H]3CC[C@H]2CN(c2nc(OCC45CCCN4CCC5)nc4c(F)c(-c5cc(O)cc6ccccc56)ccc24)C3)S1 [P-0443, (Z)-5-(2-((1R,5S)-3-(8-fluoro-7-(3-hydroxynaphthalen-1-yl)-2-((tetrahydro-1H-pyrrolizin-7a(5H)-yl)methoxy)quinazolin-4-yl)-3,8-diazabicyclo[3.2.1]octan-8-yl)-2-oxoethylidene)thiazolidine-2,4-dione]
0.0001 to 10 µM: all assays above

CN1CCC[C@H]1COc1nc(N2C[C@H]3CC[C@@H](C2)N3C(=O)CC2SC(=O)NC2=O)c2cc(F)c(-c3cc(O)cc4ccccc34)c(F)c2n1 (stereo partly drawn) [P-0463, 5-(2-((1R,5S)-3-(6,8-difluoro-7-(3-hydroxynaphthalen-1-yl)-2-(((S)-1-methylpyrrolidin-2-yl)methoxy)quinazolin-4-yl)-3,8-diazabicyclo[3.2.1]octan-8-yl)-2-oxoethyl)thiazolidine-2,4-dione]
0.0001 to 10 µM: all assays above

C=CC(=O)N1[C@@H]2CC[C@H]1CN(c1nc(OC[C@@]34CCCN3C[C@H](F)C4)nc3c(F)c(-c4cc(O)cc5cccc(Cl)c45)ccc13)C2 [P-0502, 1-((1R,5S)-3-(7-(8-chloro-3-hydroxynaphthalen-1-yl)-8-fluoro-2-(((2R,7aS)-2-fluorotetrahydro-1H-pyrrolizin-7a(5H)-yl)methoxy)quinazolin-4-yl)-3,8-diazabicyclo[3.2.1]octan-8-yl)prop-2-en-1-one]
0.0001 to 10 µM: all assays above

N#CCC(=O)N1[C@@H]2CC[C@H]1CN(c1nc(OC[C@@]34CCCN3C[C@H](F)C4)nc3c(F)c(-c4cc(O)cc5cccc(Cl)c45)ccc13)C2 [P-0504, 3-((1R,5S)-3-(7-(8-chloro-3-hydroxynaphthalen-1-yl)-8-fluoro-2-(((2R,7aS)-2-fluorotetrahydro-1H-pyrrolizin-7a(5H)-yl)methoxy)quinazolin-4-yl)-3,8-diazabicyclo[3.2.1]octan-8-yl)-3-oxopropanenitrile]
0.0001 to 10 µM: all assays above
